Assay results: US10662210B2, “Compositions and methods comprising osmium for the treatment of cancers” (Massachusetts Institute of Technology, priority 2014, dated 2020)

How the values were obtained:
[1] = test system: HMLER^tax CSC-enriched; experiment: Cytotoxicity against CSC-enriched breast cancer cells; format: cell-based; conditions: for HMLER^tax selectivity: CSC-enriched vs CSC-depleted
From the text: (§1) Cancer relapse is strongly linked to the existence of CSCs. […] Conventional chemotherapy and radiotherapy are often ineffective against CSCs. Although current therapies effectively reduce tumor mass by destroying the bulk of cancer cells, they are unable to remove CSCs, which persist and generate new tumors, often of a far more aggressive nature. Therefore, in order to improve clinical outcomes, treatments must have the ability to kill the entirety of cancer cells, including CSCs. The osmium compound, described in Formula (I), wherein X^1, X^2, and X^3 were chloride ligands and the bidentate ligand was a 1,10-phenanthroline ligand, was able to kill breast cancer cells (HMLER) enriched with CSCs, 2.3-fold better than CSC-depleted breast cancer cells. […] The selectivity of the osmium compound can be seen in Table 2 as well as FIGS. 17A-B and 18.
(§2) The colorimetric MTT assay was used to determine the toxicity of the osmium complexes and cisplatin. Cells (2×10^3) were seeded in each well of a 96-well plate. After incubating the cells overnight, various concentrations of test compound (0.3-100 μM) were added and incubated for 72 h (total volume 200 μL). The test compounds were prepared as 10 mM solutions in DMSO and diluted using media. The final concentration of DMSO in each well was 0.5% and this amount was present in the untreated control as well. Cisplatin was prepared as a 5 mM solution in PBS and diluted further using media. After 72 h, the medium was removed, 200 μL of a 0.4 mg/mL solution of MTT in DMEM or RPMI was added, and the plate was incubated for an additional 1-2 h. The DMEM/MTT or RPMI/MTT mixture was aspirated and 200 μL of DMSO was added to dissolve the resulting purple formazan crystals. The absorbance of the solution wells was read at 550 nm. Absorbance values were normalized to DMSO-containing control wells and plotted as concentration of test compound versus % cell viability. IC50 values were interpolated from the resulting dose dependent curves. The reported IC50 values are the average from at least three independent experiments, each of which consisted of six replicates per concentration level.

[2] = test system: HMLER CSC-depleted; experiment: Cytotoxicity against CSC-depleted breast cancer cells; format: cell-based
From the text: as §1, §2

[3] = test system: A2780 cells; experiment: Cytotoxicity MTT assay with pathway and cell death inhibitors; format: cell-based, human; conditions: salubrinal 10 μM
Procedure: This finding led to the investigation of the possibility that 4 may induce endoplasmic reticulum (ER) stress. Co-administration of 4 and salubrinal (10 μM), a known ER stress inhibitor, reduced the cytotoxicity of 4 in A2780 cells. […] To further validate the ER as the main target for 4, the expression of proteins related to the unfolded protein response (UPR) was monitored. […] ER membrane expansion is widely associated with ER stress. With this fact in mind the ER size of A2780 cells upon incubation with 4 were examined using fluorescence microscopy. Relative to untreated controls (FIG. 3B), cells exposed to 4 (10 μM) for 4 h had 25.1% larger ER coverage (FIG. 3C). The ER size relative to the whole cell of the untreated controls was about 30% and the ER size relative to the whole cell of the treated samples was about 55%.
Having established the intracellular targets of 2 and 4, the role of p53, a cell cycle and apoptosis regulator, in the cellular responses evoked was investigated. […] Therefore, p53 played a fundamental role in coordinating the cellular response to 2-induced DNA damage. […] (FIG. 13). […] To relate p53 to potency, cytotoxicity studies were conducted in the presence of p53 inhibitors pifithrin-α and pifithrin-μ. (both 10 μM). […] The IC50 values of compound 2 in the absence and presence of p53 inhibitor pifithrin-μ after 72 hours incubation was about 2 μM and about 30 μM, respectively.
as §2
For specific pathway and cell death inhibitor assays, inhibitors of p53 (pifithrin-α, 10 μM and pifithrin-μ, 10 μM), ER stress (salubrinal, 10 μM), necrosis (IM-54, 10 μM), and autophagocytosis (chloroquine, 10 μM) were added to cells and incubated for 0-1 h prior to treatment with the test compounds.

[4] = test system: A549 (lung); experiment: Cytotoxicity MTT assay; format: cell-based, human; conditions: 72 h
Procedure: (§3) The anti-proliferative properties of 1-4 against a panel of human cancer cell lines were assessed by the MTT [3-(4,5-dimethylthiazol-2-yl)-2,5-diphenyltetrazolium bromide] assay. Cisplatin was included as a control. The IC50 values, concentrations required to induce 50% viability, were derived from dose-response curves and are summarized in Table 1.
(§4) A549 lung adenocarcinoma, HeLa cervical cancer, and MRC5 normal human fetal lung fibroblast cell lines were maintained in Dulbecco's Modified Eagle's Medium (DMEM-low glucose) supplemented with 10% fetal bovine serum and 1% penicillin/streptomycin. The cisplatin-sensitive A2780 ovarian cancer and the cisplatin-resistant A2780/CP70 ovarian cancer cell lines were cultured in RPMI (glutamine free) media supplemented with 10% fetal bovine serum and 1% penicillin/streptomycin. All cells were grown at 310 K in a humidified atmosphere containing 5% CO2.
as §2

[5] = test system: A2780/CP70 (ovarian); experiment: Cytotoxicity MTT assay; format: cell-based, human; conditions: 72 h, cisplatin-resistant
Procedure: as §3, §4, §2

[6] = test system: A2780 (ovarian); experiment: Cytotoxicity MTT assay; format: cell-based, human; conditions: MTT, 72 h
Procedure: as §3, §4, §2

[7] = test system: MRC-5 (lung normal); experiment: Cytotoxicity MTT assay; format: cell-based, human; conditions: 72 h
Procedure: as §3, §4, §2

[8] = test system: HeLa (cervical); experiment: Cytotoxicity MTT assay; format: cell-based, human; conditions: 72 h
Procedure: as §3, §4, §2

[9] = Water-octanol partition coefficient (log P), shake-flask method with GF-AAS; format: physicochemical; conditions: room temperature, 50 μM
Procedure: Those of ordinary skill in the art would be knowledgeable of methods of determining the water-octanol partition coefficient of compounds. For example, the log P of a compound may be obtained using the shake-flask method and graphite furnace atomic absorption spectroscopy (GF-AAS). Briefly, in the shake-flask method, octanol is pre-saturated with water by overnight incubation with shaking of a biphasic mixture of the two at room temperature. A portion of 0.5 mL water containing 50 μM of the given compound is incubated with the pre-saturated octanol (0.5 mL) in a 1.5 mL tube. The tube is shaken at room temperature for 3 hours. The two phases are separated by centrifugation and the osmium content (concentration) in each phase is determined by GFAAS. The log P is then calculated using the formula below: log P=log 10[(concentration of osmium in the octanol layer)/(concentration of osmium in the water layer)].
The log P values were obtained using the shake-flask method and graphite furnace atomic absorption spectroscopy (GF-AAS). Octanol used in this experiment was pre-saturated with water by overnight incubation with shaking of a biphasic mixture of the two at room temperature. A portion of 0.5 mL water containing 50 μM of the given compound was incubated with the pre-saturated octanol (0.5 mL) in a 1.5 mL tube. The tube was shaken at room temperature for 3 h. The two phases were separated by centrifugation and the osmium content (concentration) in each phase was determined by GFAAS. All the experiments were carried out in triplicate. The log P was then calculated using the formula below: Log P=log 10[(conc. of osmium in the octanol layer)/(conc. of osmium in the water layer)].

Molecule	IC50 [1]	HMLER^tax selectivity [1]	IC50 [2]	effect of salubrinal on toxicity [3]	IC50 [4]	IC50 [5]	IC50 [6]	IC50 [7]	IC50 [8]	log P (water-octanol coefficient) [9]
O=C1[O][Pt]2([NH][C@@H]3CCCC[C@H]3[NH]2)[O]C1=O [oxaliplatin]	26.9 µM	0.55	15 µM	–	–	–	–	–	–	–
CC(=O)[O][Pt]([NH2])([Cl])([Cl])([NH]C1CCCCC1)[O]C(C)=O [satraplatin]	2.87 µM	0.43	1.22 µM	–	–	–	–	–	–	–
abamectin	0.64 µM	2.26	1.45 µM	–	–	–	–	–	–	–
N.N.O=C([O-])C1(C(=O)[O-])CCC1.[Pt+2] [carboplatin]	18.2 µM	0.98	17.8 µM	–	–	–	–	–	–	–
N.N.[Cl][Pt][Cl] [cisplatin, reference compound]	2.06 µM	0.95	1.95 µM	limited effect	3.59 ± 0.92 µM	10.3 ± 1.5 µM	1.41 ± 0.37 µM	11.1 ± 1.33 µM	2.83 ± 0.06 µM	–
CC[C@@H](C(=O)[C@@H](C)[C@@H](O)[C@H](C)[C@@H]1O[C@@H]([C@@H](CC)C(=O)O)CC[C@@H]1C)[C@H]1O[C@]2(C=C[C@@H](O)[C@]3(CC[C@@](C)([C@H]4CC[C@](O)(CC)[C@H](C)O4)O3)O2)[C@H](C)C[C@@H]1C [salinomycin]	0.058 µM	8.45	0.49 µM	–	–	–	–	–	–	–
CC1=C[N]2c3c4c(ccc3=C1C)=C(C)C(C)=C[N]4[Os]2(#[N])([Cl])([Cl])[Cl] [Complex 3, OsN(3,4,7,8-tetramethyl-1,10-phenanthroline)Cl3]	–	–	–	–	14.9 ± 1.63 µM	3.91 ± 0.26 µM	7.97 ± 1.41 µM	17.2 ± 2.16 µM	6.34 ± 0.52 µM	1.54
OsN(2,2′-bipyridine)Cl3 [Complex 1]	–	–	–	–	6.11 ± 0.87 µM	3.94 ± 1.75 µM	3.8 ± 0.21 µM	21.6 ± 4.85 µM	9.24 ± 0.58 µM	0.71
